Legend:
[1] = target: H3 HA (recombinant) (Influenza A virus (A/Brisbane/10/2007(H3N2)), UniProt A8W8K8)
[2] = target: H7 HA (recombinant) (Influenza A virus (A/Netherlands/219/2003(H7N7)), UniProt Q6VMK1)
[3] = target: H7 HA (recombinant) (Influenza A virus (A/Netherlands/219/2003(H7N7)), UniProt Q6VMK1); remark: listed apart in the source

`CC(C)(C)c1cc(O)ccc1O` [TBHQ] was tested, and the “WaterLOGSY and STD NMR; competition with antibody F49” value [1] was “NMR experiment clearly indicates that TBHQ binds to H3 HA”, the “WaterLOGSY and STD NMR; competition with antibody F49” value [2] was “TBHQ binds to H7 HA and, based on the competition NMR experiment” and the “midpoint pH of proteolysis susceptibility with TBHQ” value [3] was ~ 4.6 pH.
